Measurements from patent publication US20210138055A1, “COMPOSITIONS, METHODS AND USES FOR MODULATING THE TUMOR MICROENVIRONMENT TO ENHANCE ANTITUMOR IMMUNITY” (COLORADO STATE UNIVERSITY RESEARCH FOUNDATION, priority 2018, published 2021).

Test system: monocytes from healthy dogs
Assay: Monocyte migration inhibition in vitro
Conditions: at relevant serum concentrations (levels achieved by oral dosing); compared to positive and negative controls; FIG. 4

| Compound | monocyte migration inhibitory activity |
| --- | --- |
| CC(C)NCC(O)COc1cccc2ccccc12 (centres unmarked) [propranolol] | significant inhibitory activity |
| CCCCc1nc(Cl)c(CO)n1Cc1ccc(-c2ccccc2-c2nn[nH]n2)cc1 [losartan] | significant inhibitory activity |
